{
  "source": "ChEMBL document CHEMBL1139811",
  "about": "(Bioorg Med Chem Lett, 2007)",
  "data": [
    {"biological_target": "T1, Mycobacterial beta-ketoacyl-[acyl-carrier-protein] synthase III (Mycobacterium tuberculosis, UniProt P9WNG3)", "T1 sequence (P9WNG3 whole entry)": "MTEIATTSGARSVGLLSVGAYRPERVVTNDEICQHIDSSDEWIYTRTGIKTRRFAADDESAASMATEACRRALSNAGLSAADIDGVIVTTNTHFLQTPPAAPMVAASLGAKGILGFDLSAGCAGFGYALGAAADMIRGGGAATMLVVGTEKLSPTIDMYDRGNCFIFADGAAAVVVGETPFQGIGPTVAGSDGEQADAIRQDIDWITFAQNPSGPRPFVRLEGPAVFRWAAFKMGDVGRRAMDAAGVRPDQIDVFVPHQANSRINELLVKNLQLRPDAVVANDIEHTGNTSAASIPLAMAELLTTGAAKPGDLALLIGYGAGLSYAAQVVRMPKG", "assay": "Inhibition of Mycobacterium tuberculosis FabH", "units": {"IC50": "µM"}, "values": [
      {"smiles": "CC(=O)c1cccc(-c2ccc(CC3(C)SC(=O)C(C)=C3O)cc2)c1", "note": "(stereo not given)", "IC50": 150},
      {"smiles": "CC1=C(O)C(C)(Cc2ccc(-c3cc(F)cc(F)c3)cc2)SC1=O", "note": "(stereo not given)", "IC50": 135},
      {"smiles": "CC(=O)c1ccc(-c2ccc(CC3(C)SC(=O)C(C)=C3O)cc2)cc1", "note": "(stereo not given)", "IC50": 54},
      {"smiles": "CC1=C(O)C(C)(Cc2ccc(-c3ccc(C(=O)O)cc3)cc2)SC1=O", "note": "(stereo not given)", "IC50": 7},
      {"smiles": "COC(=O)c1ccc(-c2ccc(CC3(C)SC(=O)C(C)=C3O)cc2)cc1", "note": "(stereo not given)", "IC50": 3},
      {"smiles": "CC1=C(O)C(C)(Cc2ccc(Oc3ccccc3)cc2)SC1=O", "note": "(stereo not given)", "IC50": 15},
      {"smiles": "CC1=C(O)C(C)(Cc2ccc(-c3ccc(F)cc3)cc2)SC1=O", "note": "(stereo not given)", "IC50": 105},
      {"smiles": "CC1=C(O)C(C)(Cc2ccc(-c3ccc(-c4ccccc4)cc3)cc2)SC1=O", "note": "(stereo not given)", "IC50": 68},
      {"smiles": "CC(=O)c1ccc(-c2ccc(CC3(C)SC(=O)C(C)=C3O)cc2)s1", "note": "(stereo not given)", "IC50": 200},
      {"smiles": "CC1=C(O)C(C)(Cc2ccc(-c3ccc(C)s3)cc2)SC1=O", "note": "(stereo not given)", "IC50": 86},
      {"smiles": "CC1=C(O)C(C)(Cc2ccc(-c3ccc(Cl)cc3)cc2)SC1=O", "note": "(stereo not given)", "IC50": 130},
      {"smiles": "CC1=C(O)C(C)(Cc2ccc(-c3ccc(C(N)=O)cc3)cc2)SC1=O", "note": "(stereo not given)", "IC50": 4},
      {"smiles": "CC1=C(O)C(C)(Cc2ccc(-c3cccc(Cl)c3)cc2)SC1=O", "note": "(stereo not given)", "IC50": 156},
      {"smiles": "CC1=C(O)C(C)(Cc2ccc(C(=O)c3ccccc3)cc2)SC1=O", "note": "(stereo not given)", "IC50": 283},
      {"smiles": "CC1=C(O)C(C)(Cc2ccc(-c3ccc(F)c(F)c3)cc2)SC1=O", "note": "(stereo not given)", "IC50": 207}
    ]}
  ]
}
